# Assay results: patent publication US20230265389A1, “METHOD OF TRANSFECTING MACROPHAGES” (The University Court of The University of Edinburgh, priority 2020, published 2023)
# What was measured:
# [1] = tested on: hMDMs; test: Phagocytosis assay with pHrodo E. coli red beads; format: cell-based, human; conditions: GFP-transfected hMDMs relative to untransfected hMDMs
# Procedure: Cells were seeded in 96 well plates at a density of 200,000 per well in triplicate wells and left to adhere overnight. The following day, medium was aspirated and replaced with TexMACS medium containing NucBlue reagent (Invitrogen) and incubated for 30 min at 37° C. to stain nuclei. Medium was aspirated, cells washed in PBS, and then 100 µl PBS was added to cells. 100 µl of pHrodo E. coli red beads (diluted 1:10 in PBS) was added to the cells, and the cells were observed using an Operetta (PerkinElmer) to photograph fluorescence every 5 minutes over 145 minutes using a 40X objective. Images were analysed using Columbus. Nuclei were identified by NucBlue staining, and pHrodo red fluorescence intensity was measured in a cytoplasmic ring region around the nucleus. Fluorescence is reported as average pHrodo red fluorescence per nucleus.
# [2] = tested on: human monocyte-derived macrophages; test: Phase/contrast microscopy of transfected macrophages cultured with STING inhibitor; format: cell-based
# Description: (D) In vitro phagocytosis assay of untransfected hMDMs (control) versus GFP-transfected macrophages treated with BX-795 (GFP + BX-795), with M2-like polarising factors (GFP + BX-795 + IL4/IL13 or IL10) or DMSO control (GFP). (E) Serum liver function tests and histological analysis of picrosirius red (PSR) staining of collagen in chronic CCl4mice treated with cryopreserved hMDM (cryo), GFP-transfected hMDM treated with DMSO (GFP), GFP-transfected hMDM treated with BX-795 (GFP+B) or PBS vehicle (vehicle). *p<0.05 one-way ANOVA.
# Monocyte-derived macrophages were harvested, counted and resuspended at a density of 5 × 10^7 cells/mL of CliniMACS Electroporation Buffer (Miltenyi). 25-100 µg/mL of pMax-GFP plasmid (Lonza) was mixed with the cell suspension for electroporation. For electroporation, 100 µl of cell/plasmid mix was introduced into 0.2 cm electroporation cuvettes and electroporation conducted with the CliniMACS Prodigy Electroporator (Miltenyi). Parameters assessed were 1st pulse voltage and type, and 2nd pulse voltage, type and length. Following electroporation, cells were cultured as above, with or without the STING inhibitor BX-795 (Invivogen) up to a concentration of 10 µM.
smiles,measurement,setting,value
O=C(NCCCNc1nc(Nc2cccc(NC(=O)N3CCCC3)c2)ncc1I)c1cccs1 [BX-795],"phagocytic capacity (average fluorescence of pHRodo beads per cell), of non-genetically modified hMDMs",[1],approximately 66%
same,cell health and GFP expression,[2]; inhibitor at 10 µM,some loss of cells
same,cell health and GFP expression,[2]; inhibitor up to 8 µM,remained healthy and GFP-expressing
